According to US20150119329A1, “MODULATION OF ANGIOTENSIN II RECEPTORS FOR THE PREVENTION AND TREATMENT OF MALARIA CEREBRAL” (NEW YORK UNIVERSITY, priority 2012, published 2015):
Peptide text beside a SMILES is read from it.

Experiments:
[1] = tested on: human brain microvascular endothelial cells (HBMECs); assay: iRBC-induced disruption of interendothelial junctions and detachment of HBMEC monolayer (nuclei count, PrestoBlue viability); assay type: cell-based; settings: P. falciparum iRBCs over HBMECs, 18 hours; compound 10^−5 M
Method: Cell viability assay. To assess the viability of the adherent HBMECs PrestoBlue Cell Viability Reagent (Invitrogen) was utilized. […] After 18 hours, the plates were washed twice with PBS, and PrestoBlue Cell Viability Reagent diluted 1:10 with medium, was added. Samples were then incubated for 3 hours at 37° C. PrestoBlue is reduced from blue resazurin to red resorufin in the presence of viable cells. The absorbance (595 nm) was read with a Victor X3 plate reader.

P. berghei ANKA [2] = assay: Brain histopathology (hemorrhages, blood brain barrier integrity) in cerebral malaria mouse model; assay type: in vivo; settings: Losartan 10 mg/Kg/d, CGP-42112A 500 ng/min/kg
Method: Cerebral Malaria Experimental Mouse Model. Female C57BL/6J mice were obtained from Taconic Farms Inc. All mice were maintained under barrier conditions. Water and normal laboratory diet were available ad libitum. The infection was performed by inoculating i.p. 10^6 infected erythrocytes with P. berghei ANKA. All procedures involving animals conformed to the Guide for the Care and Use of Laboratory Animals published by US National Institutes of Health (NIH Publication No. 85-23, revised 1985) and were performed with the approval of the Animal Care and Use Committee at the University of New York. Alzet osmotic minipumps (Model 1002; ALZA Scientific Products, Mountain View, Calif., USA) were implanted into C57BL/6J mice at 4 months of age. Pumps were filled either with saline vehicle or solution of CGP-42112A (Sigma Chemical Co.) that delivered (subcutaneously) at 500 ng/min/kg for the duration of the study. Pumps were placed into the subcutaneous space of subcutaneous bupivacaine anesthetized mice through a small incision on the animal back slightly posterior of the shoulder blades that was closed with Reflex 7 mm wound closure system (ALZA Scientific Products, Mountain View, Calif., USA).

P. berghei ANKA [3] = assay: Cerebral malaria experimental mouse model (development of cerebral malaria, mortality); assay type: in vivo; settings: C57BL/6J mice infected with P. berghei ANKA; Losartan 10 mg/Kg/d in drinking water; compared with vehicle treatment

Structure (SMILES)	damage to HBMECs caused by rupture and release of iRBCs, compared to control [1] [%]	quantification of hemorrhages in brain histological slices (P. berghei ANKA [2]; brains of infected mice (FIG. 4))	structure of the brain vessels and integrity of the blood brain barrier (BBB) (P. berghei ANKA [2]; brains of infected mice, Hematoxillin/Eosin, versus untreated groups)	reduction of mortality (P. berghei ANKA [3])
CC[C@H](C)[C@H](NC(=O)[C@@H]1CCCN1C(=O)[C@H](Cc1c[nH]cn1)NC(=O)[C@H](CCCCNC(=O)[C@H](CCCNC(=N)N)NC(=O)OCc1ccccc1)NC(=O)[C@H](Cc1ccc(O)cc1)NC(=O)c1cccnc1)C(=O)O [CGP-42112A, (25,35)-2-[[(25)-1-[(25)-2-[[(25)-6-[[(25)-5-(diaminomethylideneamino)-2-(phenylmethoxy-carbonylamino)pentanoyl]amino]-2-[[(25)-3-(4-hydroxyphenyl)-2-(pyridine-3-carbonylamino)propanoyl]amino]hexanoyl]amino]-3-(1H-imidazol-5-yl)propanoyl]pyrrolidine-2-carbonyl]amino]-3-methylpentanoic acid] (HELM PEPTIDE1{[O=C(c1cccnc1)[*:2]].Y.K.H.P.I}|PEPTIDE2{[O=C(OCc1ccccc1)[*:2]].R}$PEPTIDE1,PEPTIDE2,3:R3-2:R2$$$V2.0)	20	protective effect	better maintained	
CCCCc1nc(Cl)c(CO)n1Cc1ccc(-c2ccccc2-c2nnn[nH]2)cc1 [Losartan, (2-butyl-4-chloro-1-{[2′-(1H-tetrazol-5-yl)biphenyl-4-yl]methyl]-1H-imidazol-5-yl)methanol]				4-5 times
